pIC50: −log10 of the molar value.

The subject of series [1] is MDA-MB-231. Kind of series: Antiproliferative activity against human MDA-MB-231 cells. It is filed as functional, cell-based.
The subject of another series is PANC-1. Put plainly: Antiproliferative activity against human PANC-1 cells. It is filed as functional, cell-based.
The next series relates to HT-29. Put plainly: Antiproliferative activity against human HT-29 cells. It is filed as functional, cell-based.
The nature of series [2]: Cytotoxicity activity against human HDF cells. It is filed as toxicity, cell-based. As to conditions: HDF cells (NHDF).
Series [3] concerns HCT-116. Kind of series: Antiproliferative activity against human HCT-116 cells measured after 48 hrs by MTT assay. The following applies: HCT-116, 48 h. It is filed as functional, cell-based.
In series [4] the test system is MDA-MB-231. Put plainly: Antiproliferative activity against human MDA-MB-231 cells measured after 48 hrs by MTT assay. It is filed as functional, cell-based. The following applies: MDA-MB-231, 48 h.
Series [5] deals with A549. Kind of series: Antiproliferative activity against human A549 cells measured after 48 hrs by MTT assay. It is filed as functional, cell-based. The following applies: A549, 48 h.
The subject of series [6] is HCT-116. Put plainly: Antiproliferative activity against human HCT-116 cells measured after 48 hrs. It is filed as functional, cell-based. As to conditions: HCT-116, 48 h.
Series [7] concerns A549. Put plainly: Antiproliferative activity against human A549 cells measured after 48 hrs. It is filed as functional, cell-based. The following applies: A549, 48 h.
Series [8] relates to MDA-MB-231. Put plainly: Antiproliferative activity against human MDA-MB-231 cells measured after 48 hrs. It is filed as functional, cell-based. As to conditions: MDA-MB-231, 48 h.
Series [9] concerns Hep 3B2. Put plainly: Antiproliferative activity against human Hep3B cells measured after 48 hrs by MTT assay. It is filed as functional, cell-based.
Series [10] concerns A549. Kind of series: Antiproliferative activity against human A549 cells. It is filed as functional, cell-based.
Series [11] in a line: Antiproliferative activity against mouse MC3T3-E1 cells. It is filed as toxicity, cell-based.
The next series has as its system PC-3. Kind of series: Antiproliferative activity against human PC-3 cells incubated by 48 hrs by MTT assay. It is filed as functional, cell-based. As to conditions: PC-3, 48 h.
The next series relates to HepG2. Kind of series: Antiproliferative activity against human HepG2 cells incubated by 48 hrs by MTT assay. It is filed as functional, cell-based. The following applies: HepG2, 48 h.
The test system of series [12] is A549. Put plainly: Antiproliferative activity against human A549 cells incubated by 48 hrs by MTT assay. It is filed as functional, cell-based. As to conditions: A549, 48 h.
For the next series, the system named is K562. Kind of series: Antiproliferative activity against human K562 cells incubated by 48 hrs by MTT assay. It is filed as functional, cell-based. As to conditions: K562, 48 h.
For series [13], the system named is Hep 3B2. Put plainly: Anticancer activity against human Hep3B cells measured after 48 hrs. It is filed as functional, cell-based.

With `Cc1nn(Br)c2c1[C@@]1(C(C#N)=C(N)O2)c2ccccc2-n2c1nc1ccccc1c2=O`, the negative-log IC50 (pIC50) is 4.28 with MDA-MB-231 [1], 4.32 with PANC-1, 4.10 with HT-29 and less than 4.00 in [2].

For the compound `Cc1nn(Br)c2c1[C@@]1(C(C#N)=CO2)c2cc(-c3cccc(Cl)c3)ccc2-n2c1nc1ccccc1c2=O`, the pIC50 was 4.09 in the series on MDA-MB-231 [1], 4.02 in the series on PANC-1, 4.19 in the series with HT-29 and less than 4.00 in series [2].

Consider `O=C1c2c(ccc(F)c2N2CCN(CCO)CC2)-n2c1nc1ccccc1c2=O`, for which the negative logarithm of the IC50 (pIC50) in the series with HCT-116 [3] was less than 4.00; in the series with MDA-MB-231 [4] it was less than 4.00; in the series on A549 [5], 4.38; with HCT-116 [6], less than 4.00; in the series with A549 [7], 4.38; in the series on MDA-MB-231 [8], less than 4.00.

In the series on Hep 3B2 [9], `O=C1c2cc(C(F)(F)F)ccc2-n2c1nc1ccccc1c2=O` gave a pIC50 of 5.47.

Turning to `O=C1c2c(ccc(F)c2Cl)-n2c1nc1ccc(F)c(Cl)c1c2=O`, the values for the pIC50 (in the series on A549 [10]; in series [11]) were 6.29 and 4.17, respectively.

`CCN(CC)c1cc2c(cc1Cl)C(=O)c1nc3ccccc3c(=O)n1-2`: the pIC50 was 5.89 in the series with HCT-116 [6], 5.83 in the series on A549 [7] and 5.75 with MDA-MB-231 [8].

For `O=C1c2c(ccc(F)c2N2CCOCC2)-n2c1nc1ccccc1c2=O`, the pIC50 with HCT-116 [3], in the series on MDA-MB-231 [4], with A549 [5], with HCT-116 [6], with A549 [7] and in the series with MDA-MB-231 [8] was less than 4.00 throughout.

Consider `O=C1c2cc(F)c(F)cc2-n2c1nc1ccccc1c2=O`, for which the pIC50 in the series with PC-3 is 4.98; with HepG2 it was 5.01; in the series with A549 [12], 5.67; in the series on K562, 5.48.

Consider `O=C1c2c(ccc(Cl)c2Cl)-n2c1nc1ccc(F)c(Cl)c1c2=O`, for which the pIC50 is less than 4.00 in the series with A549 [10] and 4.17 in series [11].

Regarding `O=C1c2cc(Cl)ccc2-n2c1nc1ccc(Cl)c(Cl)c1c2=O`, the pIC50 (in the series with A549 [10]; in series [11]) was less than 4.00 in each case.

Turning to `Cc1n[nH]c2c1[C@@]1(C(C#N)=C(N)O2)c2cc(-c3ccccc3)ccc2-n2c1nc1ccccc1c2=O`, the pIC50 in the series with MDA-MB-231 [1] is 4.14; in the series with PANC-1, less than 4.00; with HT-29, 4.01; in series [2], less than 4.00.

As to `O=C1c2cc(F)ccc2-n2c1nc1ccc(F)c(Cl)c1c2=O`, the pIC50 with A549 [10] is less than 4.00; in series [11], 4.05.

For the compound `O=C1c2cccc(F)c2-n2c1nc1ccccc1c2=O`, the pIC50 is 5.15 in the series with PC-3, 5.23 in the series on HepG2, 5.19 with A549 [12] and 5.43 in the series on K562.

In turn, `CN(C)c1ccc2c(c1)C(=O)c1nc3ccccc3c(=O)n1-2` gave a pIC50 in the series with Hep 3B2 [9] of 5.05.

As for `Cc1n[nH]c2c1[C@@]1(C(C#N)=CO2)c2cc(-c3cccc(Cl)c3)ccc2-n2c1nc1ccccc1c2=O`, the pIC50 in the series with MDA-MB-231 [1] is 4.28; with PANC-1 it was less than 4.00; in the series with HT-29, 4.01; in series [2], less than 4.00.

For the compound `O=C1c2cc(Cl)ccc2-n2c1nc1ccc(F)c(Cl)c1c2=O`, the pIC50 (in the series with A549 [10]; in [11]) was less than 4.00 throughout.

As for `O=C1c2c(N3CCNCC3)cccc2-n2c1nc1ccccc1c2=O`, the pIC50 with HCT-116 [3] is less than 4.00; in the series with MDA-MB-231 [4] it was less than 4.00; in the series with A549 [5], less than 4.00; in the series with HCT-116 [6], 4.05; with A549 [7], 4.86; in the series with MDA-MB-231 [8], 4.25.

Turning to `O=C1c2c(ccc(F)c2N2CCN(c3ccccn3)CC2)-n2c1nc1ccccc1c2=O`, the pIC50 in the series with HCT-116 [3], with MDA-MB-231 [4], in the series on A549 [5], with HCT-116 [6], in the series with A549 [7] and with MDA-MB-231 [8] was less than 4.00 each time.

As to `O=C1c2c(ccc(F)c2N2CCCCC2)-n2c1nc1ccccc1c2=O`, the pIC50 with HCT-116 [3] was 4.19; in the series on MDA-MB-231 [4] it was less than 4.00; with A549 [5], less than 4.00; in the series on HCT-116 [6], 4.19; with A549 [7] it was less than 4.00; in the series with MDA-MB-231 [8] it was less than 4.00.

In turn, `O=C1c2ccccc2-n2c1nc1ccc(Br)cc1c2=O` had a pIC50 in the series on Hep 3B2 [13] of 5.05.

In the series with Hep 3B2 [13], `COc1cccc2c1C(=O)c1c(O)c3c(c(O)c1C2=O)C[C@@](O)(C(=O)CO)C[C@@H]3O[C@H]1C[C@H](N)[C@H](O)[C@H](C)O1` [DOXORUBICIN] had a pIC50 of 6.59.

The values are drawn from ChEMBL document CHEMBL5532682, “Recent advances of tryptanthrin and its derivatives as potential anticancer agents” (RSC Med Chem, 2024).
